In brackets after ≈: the same amount, converted by molar mass. Several values for one entry are separate records, joined by “and”; a condition that tells them apart may be missing. Equal values may be shown once. Entries after “also recorded” stand apart in the source; their conditions may differ. Read-outs that look alike come from different tables or passages of the source.
How the values were obtained:
[1] = Cytotoxicity in Huh-7 cells; format: cell-based; conditions: human, Huh-7 cells (liver)
[2] = system: HCV genotype 1b; format: in vivo, human; conditions: for mean reduction in HCV viral load / range of reduction in HCV viral load: genotype 1b subjects, 24 h
[3] = system: BVDV replicon; assay: BVDV replicon; format: cell-based, bovine viral diarrhoea virus; conditions: Bovine viral diarrhea virus isolates and strains, Huh-7, in Bos taurus
[4] = system: Infectious BVDV; assay: BVDV cell protection assay; format: cell-based, bovine viral diarrhoea virus; conditions: Bovine viral diarrhea virus isolates and strains, MDBK, in Bos taurus
[5] = system: HCV genotype 1; assay: Single ascending-dose study in HCV-infected subjects: plasma HCV RNA; format: in vivo, human
[6] = Battery of in vitro receptor binding and enzymatic assays; conditions: assessment of promiscuity
[7] = system: genotype 1a replicon cells; assay: HCV replicon combination study with NS3 inhibitor in genotype 1a replicon cells; format: cell-based, hepatitis C virus; conditions: ITMN-191, overall
[8] = system: panel of 10 RNA and DNA viruses; assay: organism not typed; format: cell-based
[9] = Single ascending-dose study in healthy, non-HCV-infected subjects; format: in vivo, human
[10] = system: HCV replicon; assay: HCV replicon inhibitor combination studies; format: cell-based, hepatitis C virus; conditions: overall
[11] = system: HCV replicons of genotypes 1a, 1b, 2a, 3a, 4a and 5a; assay: HCV replicons, all genotypes tested; format: cell-based; conditions: Hepatitis C virus, read-out: EC50 values, all genotypes tested
[12] = system: HCV genotype 1a; format: in vivo, human; conditions: genotype 1a subjects, 24 h
[13] = system: genotype 1a replicon; assay: Genotype 1a replicon assay with 40% human serum; format: cell-based; conditions: Hepatitis C virus, GETYPE1A, read-out: EC90 (protein-binding-adjusted)
[14] = system: HCV genotype 1a replicon (NS5A variants); assay: Transient replication assay, genotype 1a wild type and resistant variants; format: cell-based; conditions: Hepatitis C virus, GETYPE1A, most resistant 1a variant, L31V
[15] = system: genotype 1b replicon; assay: Genotype 1b replicon assay with 40% human serum; format: cell-based; conditions: Hepatitis C virus, GETYPE1B, read-out: EC90 (protein-binding-adjusted)
[16] = Preclinical pharmacokinetics; format: in vivo, four preclinical species
[17] = system: Y93H replicon; assay: Y93H replicon assay; format: cell-based; conditions: Hepatitis C virus
[18] = molecular target: T1, BVDV NS5A (Bovine viral diarrhea virus, UniProt P19711); assay: Biotin/streptavidin pull-down in BVDV replicons; format: binding, bovine viral diarrhoea virus; conditions: replicons expressing BVDV RNA
T1 sequence (P19711 2774-3269 limits assumed): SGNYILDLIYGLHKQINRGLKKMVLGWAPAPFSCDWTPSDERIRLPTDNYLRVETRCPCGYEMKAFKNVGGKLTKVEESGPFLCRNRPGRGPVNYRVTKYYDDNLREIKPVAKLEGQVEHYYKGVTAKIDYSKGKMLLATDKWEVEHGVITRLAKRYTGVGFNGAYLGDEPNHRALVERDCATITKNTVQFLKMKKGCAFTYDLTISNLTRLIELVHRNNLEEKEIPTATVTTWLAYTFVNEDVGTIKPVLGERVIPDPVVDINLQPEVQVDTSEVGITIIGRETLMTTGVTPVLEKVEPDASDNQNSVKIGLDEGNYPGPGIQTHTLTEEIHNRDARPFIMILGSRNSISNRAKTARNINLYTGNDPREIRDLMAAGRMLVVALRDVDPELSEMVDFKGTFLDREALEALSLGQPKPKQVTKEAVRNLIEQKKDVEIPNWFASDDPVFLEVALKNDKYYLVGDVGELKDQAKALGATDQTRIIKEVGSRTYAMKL

[19] = system: HCV replicon genotype 1b, Con1; assay: HCV genotype 1b; format: cell-based; conditions: Hepatitis C virus, GETYPE1B, read-out: EC50 (subgenomic viral RNA replication)
[20] = molecular target: HCV NS3 (Hepatitis C virus genotype 1b, UniProt Q9WMX2); assay: Biotin/streptavidin pull-down, immunoblot for NS3; format: binding; conditions: genotype 1b replicon cells
[21] = molecular target: T2, genotype 1b HCV NS5A (Hepatitis C virus genotype 1b, UniProt Q9WMX2, S2204I); assay: NS5A inhibitor binding assay; conditions: 1 μM, genotype 1b replicon cells, about 18 h, streptavidin agarose beads, immunoblot
T2 sequence (Q9WMX2 1973-2419 S2204I limits assumed): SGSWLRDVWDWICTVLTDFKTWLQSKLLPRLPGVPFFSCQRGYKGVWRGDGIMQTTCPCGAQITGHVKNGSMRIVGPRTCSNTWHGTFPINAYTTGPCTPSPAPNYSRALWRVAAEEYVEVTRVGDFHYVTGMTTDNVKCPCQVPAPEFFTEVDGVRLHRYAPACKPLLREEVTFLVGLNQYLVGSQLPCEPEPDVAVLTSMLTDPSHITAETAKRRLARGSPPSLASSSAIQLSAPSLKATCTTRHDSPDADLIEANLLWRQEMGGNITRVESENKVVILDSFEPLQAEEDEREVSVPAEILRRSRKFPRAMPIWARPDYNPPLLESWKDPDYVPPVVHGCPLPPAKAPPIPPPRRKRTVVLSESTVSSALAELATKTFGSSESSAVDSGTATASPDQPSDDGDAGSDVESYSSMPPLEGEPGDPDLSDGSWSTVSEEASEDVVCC

[22] = molecular target: HCV NS5B (Hepatitis C virus genotype 1b, UniProt Q9WMX2); assay: Biotin/streptavidin pull-down, immunoblot for NS5B; format: binding; conditions: genotype 1b replicon cells
[23] = 1 mg single dose, 24 h after administration

For `COC(=O)N[C@H](C(=O)N1CCC[C@H]1c1ncc(-c2ccc(-c3ccc(-c4cnc([C@@H]5CCCN5C(=O)[C@@H](NC(=O)OC)C(C)C)[nH]4)cc3)cc2)[nH]1)C(C)C` [BMS-790052], the CC50 [1] was 17 ± 1 µM, the “Headache (most frequent adverse event), subjects reporting” value (HCV-infected subjects) was “four” and the Safety and tolerability (HCV-infected subjects, single oral doses up to 100 mg) was “safe and well tolerated”. For the same compound, the half-life (both, human, plasma, po) was 10 to 14 h, the “HCV RNA measurement at hour 144” value ([2]; 100 mg single dose, two individual subjects with genotype 1b) was “less than 25 IU ml^-1 and 35 IU ml^-1” and the “mean reduction in HCV viral load” value ([2]; 10 mg) was 3.6 log10. The “range of reduction in HCV viral load” value ([2]; 10 mg) was 3.1–4.0 log10, the “mean reduction in HCV viral load” value ([2]; 100 mg) was 3.1 log10 and the “range of reduction in HCV viral load” value ([2]; 100 mg) was 2.7–3.4 log10. For the same compound, the EC50 [3] was 9 µM, the EC50 [4] was 12 µM and the “mean reduction in HCV viral load” value [5, 23] was 1.8 log10. For the same compound, the “range of reduction in HCV viral load” value [5, 23] was 0.2–3.0 log10, the “mean maximal HCV RNA decline” value ([5]; 100 mg single dose) was 3.6 log10 and the “range of maximal HCV RNA decline” value ([5]; 100 mg single dose) was 3.0–4.1 log10. The “Effects in battery of in vitro receptor binding and enzymatic assays” value [6] was “no significant effects”, the “Combination effect with NS3 protease inhibitor” value [7] was “Additive/synergistic” and the EC50 [8] was > 10 µM. The “Drug concentrations at and beyond 24 h post-dose” value ([9]; all healthy subjects, versus EC90 for genotypes 1a and 1b) was “greater than the protein-binding-adjusted EC90”, the Exposure versus dose ([9]; healthy subjects, 1 to 200 mg oral solution) was “dose-proportional exposures” and the “Absorption after oral administration” value ([9]; healthy subjects, oral solution) was “readily absorbed”. The Safety and tolerability ([9]; healthy subjects, single oral doses up to 200 mg) was “safe and well tolerated”, the “Combination effect with Interferon-α2β (intron A)” value [10] was “Synergistic” and the “Combination effect with nucleoside NS5B polymerase inhibitor NM-107” value [10] was “Additive/synergistic”. The “Combination effect with non-nucleoside NS5B polymerase inhibitor” value ([10]; palm site II allosteric inhibitor) was “Additive/synergistic”, the EC50 [11] was 0.009 to 0.146 nM and the “mean reduction in HCV viral load” value ([12]; 1 mg) was 1.8 log10. The “range of reduction in HCV viral load” value ([12]; 1 mg) was 0.2–3.0 log10, the “mean reduction in HCV viral load” value ([12]; 10 mg) was 2.9 log10 and the “range of reduction in HCV viral load” value ([12]; 10 mg) was 2.9–3.0 log10. For the same compound, the “mean reduction in HCV viral load” value ([12]; 100 mg) was 3.6 log10, the “range of reduction in HCV viral load” value ([12]; 100 mg) was 3.5–3.6 log10 and the EC90 [13] was 0.28 ng/mL (≈ 0.379 nM). For the same compound, the EC50 [14] was ~0.02 µM, the EC90 [15] was 0.04 ng/mL (≈ 0.0541 nM) and the Oral bioavailability ([16]; four preclinical species) was “orally bioavailable”. For the same compound, the Liver distribution ([16]; preclinical species) was “distributes effectively to the liver”.

In the case of `O=C1N[C@H]2[C@H](CS[C@H]2CCCCC(=O)N2CCC[C@H]2C(=O)Nc2ccc(/C=C/c3ccc(NC(=O)[C@@H]4CCCN4C(=O)Cc4ccccc4)cc3)cc2)N1` [Compound 1], the EC50 [17] is reported as > 10 µM, the “Binding to BVDV NS5A (pull-down)” value [18] is reported as “failed to bind” and the EC50 [19] is reported as 0.033 µM. For the same compound, the NS3 in pull-down [20] was “not detected”, the “Binding to HCV NS5A (pull-down)” value [21] was “pulled down efficiently; also recorded: binds” and the NS5B in pull-down [22] was “not detected”.

In the case of `O=C1N[C@H]2[C@H](CS[C@H]2CCCCC(=O)N2CCC[C@@H]2C(=O)Nc2ccc(/C=C/c3ccc(NC(=O)[C@H]4CCCN4C(=O)Cc4ccccc4)cc3)cc2)N1` [Compound 2], the “Binding to HCV NS5A (pull-down)” value [21] is reported as “does not”.

Source: article PMC7094952 (Nature, 2010)
